In patent US20240166643A1, “IMIDAZO[1,2-A]PYRIDINE COMPOUNDS AND THEIR USE IN THERAPY” (Imperial College Innovations Limited, priority 2020, published 2024):

System: Plasmodium falciparum 3D7
Test: SYBR Green assay, Plasmodium falciparum strain 3D7
Type: cell-based
Details: P. falciparum strain 3D7, 96 h incubation, read-out: Pf EC50 strain 3D7

Row | EC50 [µM] | Compound
1 | 0.057 | CC1CN(c2ncc(Cl)c(N3CC(C(=O)NC(C)(C)c4cnc5ccccn45)C3)n2)C[C@@H](C)N1 (stereo partly shown) [Example 46]
2 | 0.0022 | CC1NCCN(c2ncc(Cl)c(N3CC(C(=O)NC(C)(C)c4cnc5ccccn45)C3)n2)C1C (stereo not shown) [Example 79]
3 | 0.0053 | C[C@@H]1CN(c2cc(N3CC(C(=O)NC(C)(C)c4cnc5ccccn45)C3)c(Cl)cn2)CCN1C [Example 103, 1-{5-chloro-2-[(3R)-3,4-dimethylpiperazin-1-yl]pyridin-4-yl}-N-(2-{imidazo[1,2-a]pyridin-3-yl}propan-2-yl)azetidine-3-carboxamide]
4 | 0.035 | C[C@@H]1CN(c2cc(N3CC(C(=O)NC(C)(C)c4cnc5ccccn45)C3)c(F)cn2)CCN1C [Example 104, 1-{2-[(3R)-3,4-dimethylpiperazin-1-yl]-5-fluoropyridin-4-yl}-N-(2-{imidazo[1,2-a]pyridin-3-yl}propan-2-yl)azetidine-3-carboxamide]
5 | 0.018 | CN1CCN(c2cc(N3CC(C(=O)NC(C)(C)c4cnc5ccccn45)C3)c(Cl)cn2)CC1 [Example 105, 1-[5-chloro-2-(4-methylpiperazin-1-yl)pyridin-4-yl]-N-(2-{imidazo[1,2-a]pyridin-3-yl}propan-2-yl)azetidine-3-carboxamide]
6 | > 1 | C[C@H]1CN(C)CCN1c1ncc(Cl)c(N2CC(C(=O)N(C)Cc3cnc4ccccn34)C2)n1 [Example 106, 1-{5-chloro-2-[(2S)-2,4-dimethylpiperazin-1-yl]pyrimidin-4-yl}-N-{imidazo[1,2-a]pyridin-3-ylmethyl}-N-methylazetidine-3-carboxamide]

Row | Compound | EC50 [µM]
7 | COc1cnc(N2C[C@@H](C)N(C)[C@H](C)C2)nc1N1CC(C(=O)NC(C)(C)c2cnc3ccccn23)C1 [Example 91, N-(2-{imidazo[1,2-a]pyridin-3-yl}propan-2-yl)-1-{5-methoxy-2-[(3R,5R)-3,4,5-trimethylpiperazin-1-yl]pyrimidin-4-yl}azetidine-3-carboxamide] | 0.23
8 | COc1cnc(N2C[C@H](C)N(C)[C@@H](C)C2)nc1N1CC(C(=O)NC(C)(C)c2cnc3ccccn23)C1 [Example 94, N-(2-{imidazo[1,2-a]pyridin-3-yl}propan-2-yl)-1-{5-methoxy-2-[(3S,5S)-3,4,5-trimethylpiperazin-1-yl]pyrimidin-4-yl}azetidine-3-carboxamide] | 0.44

Target: Human NMT1 (HsNMT1) (Homo sapiens, UniProt P30419)
Sequence (P30419 whole entry, looked up): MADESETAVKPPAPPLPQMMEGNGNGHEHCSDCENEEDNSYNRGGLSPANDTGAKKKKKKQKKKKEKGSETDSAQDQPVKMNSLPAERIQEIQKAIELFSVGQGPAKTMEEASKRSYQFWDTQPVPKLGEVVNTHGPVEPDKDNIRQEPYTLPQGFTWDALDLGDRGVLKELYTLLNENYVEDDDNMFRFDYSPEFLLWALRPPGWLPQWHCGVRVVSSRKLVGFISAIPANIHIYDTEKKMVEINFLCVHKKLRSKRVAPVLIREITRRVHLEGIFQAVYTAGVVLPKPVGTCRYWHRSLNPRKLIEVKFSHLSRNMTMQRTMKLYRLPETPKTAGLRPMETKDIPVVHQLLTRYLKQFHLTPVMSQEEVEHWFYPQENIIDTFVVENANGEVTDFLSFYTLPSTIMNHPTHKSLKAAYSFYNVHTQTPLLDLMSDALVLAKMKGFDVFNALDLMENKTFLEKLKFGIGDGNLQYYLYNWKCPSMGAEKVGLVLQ
Test: biochemical
Details: not given

Row | IC50 [µM] | Compound
9 | 0.008 | CC(C)(NC(=O)C1CN(c2nc(N3CCCNCC3)nc3ccsc23)C1)c1cnc2ccccn12 [Example 123, 1-(2-(1,4-diazepan-1-yl)thieno[3,2-d]pyrimidin-4-yl)-N-(2-(Imidazo[1,2-a]pyridin-3-yl)propan-2-yl)azetidine-3-carboxamide]
10 | 0.234 | CN(C(=O)C1CN(c2nc(N3CCC(N)CC3)ncc2Cl)C1)C(C)(C)c1cnc2ccccn12 [Example 128, 1-(2-(4-aminopiperidin-1-yl)-5-chloropyrimidin-4-yl)-N-(2-(Imidazo[1,2-a]pyridin-3-yl)propan-2-yl)-N-methylazetidine-3-carboxamide]
11 | 0.179 | CN(C(=O)C1CN(c2nc(N3CCCC(N)CC3)ncc2Cl)C1)C(C)(C)c1cnc2ccccn12 (stereo not shown) [Example 131, 1-(2-(4-aminoazepan-1-yl)-5-chloropyrimidin-4-yl)-N-(2-(imidazo[1,2-a]pyridin-3-yl)propan-2-yl)-N-methylazetidine-3-carboxamide]
12 | 0.19 | CN(C(=O)C1CN(c2nc(N3CC4CC3CN4)ncc2Cl)C1)C(C)(C)c1cnc2ccccn12 (stereo not shown) [Example 132, 1-(2-(2,5-diazabicyclo[2.2.1]heptan-2-yl)-5-chloropyrimidin-4-yl)-N-(2-(imidazo[1,2-a]pyridin-3-yl)propan-2-yl)-N-methylazetidine-3-carboxamide]
13 | 0.146 | C[C@H]1CN(c2ncc(Cl)c(N3CC(C(=O)N(C)C(C)(C)c4cnc5ccccn45)C3)n2)CCN1C [Example 140, (S)-1-(5-chloro-2-(3,4-dimethylpiperazin-1-yl)pyrimidin-4-yl)-N-(2-(imidazo[1,2-a]pyridin-3-yl)propan-2-yl)-N-methylazetidine-3-carboxamide]
